From patent US4868195A, “Novel enolamides, pharmaceutical compositions and methods of use thereof for activity as modulators of the arachidonic acid cascade” (Warner-Lambert Company, priority 1988, dated 1989)

tested on: Human Leukocyte Lipoxygenase; experiment: Human Leukocyte Lipoxygenase Assay (LDA-H); type: biochemical; settings: Concentration 1.00 E -5 M
Method: Human Leukocyte Lipoxygenase Assay (LDA-H)
Whole blood is collected from normal volunteers and spun in a refrigerated centrifuge for four minutes at 1°-6° C. at 3800 g. The buffy coat is manually separated and washed twice with chilled 0.83% NH4 Cl and centrifuged at 1000 RPM for ten minutes at 4° C. The white cell is suspended in culture media-EMEM supplemented with 6% Agamma human serum, tricine buffer, and neomycin and recentrifuged at 1000 g to yield a pellet containing the leukocytes used for the preparation of the acetone pentane powder.
The acetone-pentane powder is prepared utilizing a modification of the procedure reported for human platelet lipoxygenase. See Siegel, et al, Arachidonate Metabolism via Lipoxygenase and 12-L-hydroperoxy-5 Eicosatetraenoic Acid Peroxidase Sensitive to Antiinflammatory Drugs, Proc. Natl. Acad. Sci., USA 77: 308, 1980 and D. P. Wallach and V. R. Brown, A Novel Preparation of Human Platlet Lipoxygenase, Biochem. Biophys. Acta. 663: 361, 1981. Buffy coat prepared above is resuspended in 5-7 volumes of cold 0.1M Tris buffer, pH 7.4 containing 0.154M NaCl. The suspension is centrifuged at 13,300 g for ten minutes at 4° C. The resultant pellet is retained, resuspended in five volumes of cold acetone, recentrifuged at 13,300 g and resuspended in five volumes of cold pentane. The pentane suspension is centrifuged for ten minutes at 13,300 g to give a pellet which is dried in the cold under vacuum with periodic pulverization. The dry powder is stable for several weeks when stored at -80° C.
Enzyme stock solution is prepared in the following manner. About 15 mg of the acetone-pentane powder is suspended in 4 ml of cold tris buffer (0.1M, pH 7.4), allowed to stand for five minutes, and homogenized thoroughly. The homogenate is sonicated three times for 15 seconds each time, diluted to 7 ml with cold tris buffer (0.1M, pH 7.4), and centrifuged at 4° C. for 60 minutes at 13,300 g. the supernatent is retained and diluted to a total of 10 ml with cold tris buffer (0.1M, pH 7.4) to give the stock enzyme solution. Additional dilutions of 2-50 fold are done as necessary to locate optimal enzyme reaction rate in the assay described below.
Substrate solution is prepared at 100 μM or 1.0 μM concentrations of arachidonic acid or linoleic acid in 0.1M tris buffer, pH 9.0 containing 20% ethanol.
The enzyme reaction is followed spectrophotometrically by the appearance of a conjugated diene product at 234 nm. The reaction is monitored at 24° C. using a Gilford Model 2600 spectrophotometer. […] The effects of inhibitors on the reaction are compared with control reactions run under indentical conditions. Routinely, each compounds of the present invention is incubated with the enzyme for five minutes prior to addition of substrate to initiate the reaction. Inhibition expressed as IC50 as molar concentration of the compound required to reduce reaction rate to 50% control.

SMILES	% Inhibition (LDAH)
COc1ccc(CCc2ccc(NC(=O)C(=O)C3=C(O)c4ccccc4S(=O)(=O)C3)cc2)cc1OC [Example 3, N-[4-[2-(3,4-Dimethoxyphenyl)ethyl)phenyl]-4-hydroxy-α-oxo-2H-1-benzothiopyran-3-acetamide, 1,1-dioxide]	0.0%

same assay, conditions: Concentration 2.50 E -5 M

SMILES	% Inhibition (LDAH)
O=C(Nc1ccc(CCCCc2ccc(O)c(O)c2)cc1)C1CS(=O)(=O)c2ccccc2C1=O (stereo not drawn) [Example 23, N-[4-[4-(3,4-Dihydroxyphenyl)butyl]phenyl]-3,4-dihydro-4-oxo-2H-1-benzothiopyran-3-carboxamide, 1,1-dioxide]	0.0%
O=C(Nc1ccc(CCc2cc(O)c(O)c(O)c2)cc1)C1=C(O)c2ccccc2S(=O)(=O)C1 [Example 36]	0.0%
COc1ccc(CCc2ccc(NC(=O)C(=O)c3[nH]c4cc(C)c(C)cc4c3O)cc2)cc1OC [Example 175, 1H-Indole-2-acetamide, N-[4-[2-(3,4-dimethoxyphenyl)ethyl]phenyl]-3-hydroxy-5,6-dimethyl-α-oxo]	0.0%
COc1ccc(CCc2ccc(NC(=O)C(=O)C3=C(O)c4ccccc4S(=O)(=O)C3)cc2)cc1OC [Example 3, N-[4-[2-(3,4-Dimethoxyphenyl)ethyl)phenyl]-4-hydroxy-α-oxo-2H-1-benzothiopyran-3-acetamide, 1,1-dioxide]	0.0%

same assay, conditions: acetone-pentane powder enzyme, 234 nm, 24° C., 5 min preincubation; read-out: Concentration (M) for 50.0 % Inhibition, IC (LDAH)

SMILES	IC50
COc1ccc(CCc2ccc(NC(=O)c3oc4ccc5ccccc5c4c3O)cc2)cc1OC [Example 103, Naptho[2,1-b]furan-2-carboxamide, 1-hydroxy-N-[4-[2-(3,4-dimethoxyphenyl)ethyl]phenyl]]	1.1e-06 M
CN(C)c1ccc(CCc2ccc(NC(=O)C3CS(=O)(=O)c4ccccc4C3=O)cc2)cc1 (stereo not drawn) [Example 55]	6.8e-05 M
O=C(Nc1ccc(CCc2ccc(Cl)cc2)cc1)C(=O)C1=C(O)c2ccccc2SC1 [Example 4, N-[4-[2-(4-chlorophenyl)ethyl]phenyl]-4-hydroxy-α-oxo-2H-1-benzothiopyran-3-acetamide]	4.5e-05 M
Nc1ccc(CCc2ccc(NC(=O)C3CS(=O)(=O)c4ccccc4C3=O)cc2)cc1 (stereo not drawn) [Example 52, N-[4-[2-(4-Aminophenyl)ethyl]phenyl]-3,4-dihydro-4-oxo-2H-1-benzothiopyran-3-carboxamide, 1,1-dioxide]	6e-05 M
